{
  "source": "patent US20010039295A1",
  "about": "“N,N'-bis(2-hydroxybenzyl)-ethylenediamine-N,N'-diacetic acid in iron chelating therapy” (priority 1999, published 2001)",
  "key": {"[1]": {"test_system": "iron loaded Cebus apella monkey", "settings": "Cebus apella monkey screen, DFOM subcutaneous (Bergeron et al. 1993; Peter et al. 1994); cited from earlier work"}, "[2]": {"settings": "typical, parenteral therapy; cited from earlier work"}, "[3]": {"experiment": "Impact of IV chelator on blood pressure and heart rate in normotensive rats", "assay_type": "in vivo, Sprague Dawley rats", "description": "Owing to the profound impact that DFO administered IV can have on blood pressure and cardiac function (Whitten, D. F.; Gibson, G. W.; Good, M. H.; Goodwin, J. F.; Brough, A. J. Studies in Acute Iron Poisoning. I. Desferrioxamine in the Treatment of Acute Iron Poisoning: Clinical Observations, Experimental Studies, and Theoretical Considerations. Pediatrics 1965, 36, 322-335), the manufacter recommends that the drug be given by this route at doses not to exceed 15 mg/kg/h (22 μmol/kg/h). In addition, patients suffering from acute iron toxicity should be given DFO IV only under circumstances of cardiovascular collapse, and even then at doses not to exceed 15 mg/kg/h for the first 1000 mg. Subject IV dosing, if needed, must be at a slower rate not to exceed 125 mg/h. Upon consideration of this, this example compares the impact of DFO and NaHBED administered IV on blood pressure and heart rate in normotensive rodents. The chelators were administered at a dose of 300 μmol/kg in a 0.5-ml volume either by IV bolus (n=5 for both drugs) or by IV infusion over a 20-min period (n=5 for NaHBED, n=4 for DFO) in accordance with the following procedure.\nThe basic procedure has been described in an earlier publication (Bergeron, R. J.; Wiegand, J.; Sninsky, C. A.; Katovich, M. J. The Impact of Polyamine Analogues on the Blood Pressure of Normotensive and Hypertensive Rats. Clin. Exp. Hypertension 1995, 17, 1197-1217). Briefly, normotensive adult male Sprague Dawley rats (400 g) were anesthetized with sodium pentobarbital (55 mg/kg IP). After the neck and shoulder areas were prepared for surgery, an incision was made into the neck area. The proximal end of the carotid artery was tied off with 3-0 silk; the other end was clamped. Once a piece of PE-50 tubing was inserted approximately 3 cm into the artery and tied into place; the tubing was skin tunneled to the shoulder area. The jugular vein was cannulated using a similar procedure. Both of the tubings were flushed with heparin (100 U/ml); a stylet was inserted.\nApproximately 24 h after the surgery, the animals were placed into individual cages and were connected to a blood pressure transducer (ADInstrurnents, Inc., Milford, MA) via the carotid catheter. […]\nAfter a ½-h stabilization period, 0.5 ml of saline was administered as an IV bolus via the jugular vein catheter, and the blood pressure and heart rate were monitored for 5 min. […] The blood pressure and heart rate readings were taken for 1 h post-drug, during which the animals were unrestrained.\nRats receiving the drug as a 20-min IV infusion (n=5 for HBED, n=4 for DFO) were allowed to acclimate as above. […] Blood pressure and heart rate were monitored during the infusion and for one hour thereafter."}, "[4]": {"settings": "IV bolus, conscious rats, 200-300 mg/kg"}, "[5]": {"test_system": "iron loaded Cebus apella monkey", "experiment": "Iron-balance study (iron clearing efficiency) in iron-loaded Cebus apella monkeys", "experimental": "After intramuscular anesthesia with ketamine, an intravenous infusion is started in a leg vein. […] Two to three infusions, separated by between 10 and 14 days, may be necessary to provide about 500 mg iron per Kg body weight. […] At least twenty half-lives, sixty days, passes before using any of the animals in experiments evaluating iron-chelating agents.\nSeven days before the administration of the drug, the animals are placed in metabolic cages and started on a low-iron liquid diet. The monkeys are maintained on the low-iron liquid diet for the duration of the experiment. They are given food according to their body weight, and intake is very carefully monitored.\nThree days prior to drug administration, day −2 to day 0, baseline iron intake and output values are measured. This same measurement is made for day +1 to day +3. The total amount of iron intake is compared with the total amount of iron excreted.\nFecal and urine samples are collected at 24 hour intervals. The collections begin four days prior to the administration of the test drug and continue for an additional five days after the drug is given. Fecal samples are assayed for the presence of occult blood, weighed, and mixed with distilled deionized water prior to autoclaving for 30 minutes. The mixture is then freeze-dried, and a known portion of the powder is mixed with low-iron nitric acid and refluxed for 24 hours. Once any particulate matter in the digested samples is removed by centrifugation, iron concentrations are determined by flame atomic absorption. Monkey urine samples are acidified and reconstituted to initial volume after sterilization, if necessary.\nThe monosodium salt of HBED in distilled H2O was given to the monkeys intravenously (IV) at a single dose of 75 μmol/kg (34.6 mg/kg n=4)."}, "[6]": {"settings": "given orally to human patients; cited from earlier work"}, "[7]": {"settings": "300 μmol/kg, 20-min IV infusion"}, "[8]": {"settings": "IV push, single dose 75 μmol/kg"}},
  "note": "Where a name gives a salt, the structure may show the parent alone.",
  "data": [
    {"smiles": "CC(=O)N(O)CCCCCNC(=O)CCC(=O)N(O)CCCCCNC(=O)CCC(=O)N(O)CCCCCN", "note": "[DFO, deferoxamine B]", "values": [
      {"measurement": "activity compared with HBED or its dimethyl ester given orally", "setting": "[1]", "result": "significantly higher activity"},
      {"measurement": "share of the compound administered that binds iron", "setting": "[2]", "result": "≤ 5", "unit": "%"}
    ]},
    {"smiles": "O=C(O)CN(CCN(CC(=O)O)Cc1ccccc1O)Cc1ccccc1O", "note": "[HBED monosodium salt, N,N′-bis(2-hydroxybenzyl)-ethylenediamine-N,N′-diacetic acid]", "values": [
      {"measurement": "effect on blood pressure", "setting": "[3]; 300 μmol/kg IV bolus", "result": "no effect"},
      {"measurement": "effect on heart rate", "setting": "[3]; 300 μmol/kg IV bolus", "result": "no effect"},
      {"measurement": "effect on blood pressure", "setting": "[3]; [7]", "result": "no effect"},
      {"measurement": "effect on heart rate", "setting": "[3]; [7]", "result": "no effect"},
      {"measurement": "side-effects", "setting": "[4]", "result": "no apparent side-effects"},
      {"measurement": "net iron excretion relative to similar doses of subcutaneous DFOM", "setting": "[5]; IV push 75 μmol/kg vs subcutaneous DFOM", "result": "nearly three times"},
      {"measurement": "share of excreted iron in the stool", "setting": "[5]; [8]", "result": 70, "unit": "%"},
      {"measurement": "share of excreted iron in the urine", "setting": "[5]; [8]", "result": 30, "unit": "%"}
    ]},
    {"smiles": "O=C(O)CN(CCN(CC(=O)O)Cc1ccccc1O)Cc1ccccc1O", "note": "[HBED, N,N′-bis(2-hydroxybenzyl)-ethylenediamine-N,N′-diacetic acid]", "values": [
      {"measurement": "iron excretion level", "setting": "[6]", "result": "ineffective for the treatment of iron overload"}
    ]}
  ]
}
